From patent US20140323581A1, “TRANSCRIPTOME WIRING ANALYSIS IN PARKINSON'S DISEASE AND USES THEREOF” (THE TRUSTEES OF COLUMBIA UNIVERSITY IN THE CITY OF NEW YORK, priority 2011, published 2014)
“Also recorded” adds a separate entry of the source.

What was measured:
aSynL:total ratio [1] = test: aSynL:total ratio by RT-qPCR in rat primary cortical cultures; format: cell-based; settings: for aSynL:total ratio: rat primary cortical neurons, RT-qPCR, dopamine, picrotoxin, muscimol, NMDA 100 μM, kainic acid 50 μM, vs vehicle; for dopamine-mediated potentiation of the aSynL:total ratio: nomifensine 100 μM with dopamine 100 μM for 24 h
Method: (§1) Cultures of rodent neurons were prepared as described in ^53. Cells were maintained in vitro for 3-5 days before drug treatments or transfection using Lipofectamine 2000 (Iinvitrogen) following manufacturer's instructions.
RT-qPCR analyses were performed as described ^60. The human aSynL:Total mRNA ratio was quantified in terms of AACt ^60 using primer pair Lh for the human long form (HaSynLfw [[…]] SEQ ID NO: 13, and HaSynLry [[…]]) SEQ ID NO: 14 and primer pair Th for human total (HaSynTfw [[…]] SEQ ID NO: 15 and HaSynTrv [[…]] SEQ ID NO: 16). For analysis of either mouse or rat, primer pairs mrL (RaSynLfw [[…]] SEQ ID NO: 17 and RaSynLrv [[…]] SEQ ID NO: 18) and mrT (RaSynTfw [[…]] SEQ ID NO: 19, RaSynTry [[…]] SEQ ID NO: 20) were used.

human aSyn 3′UTR = test: Firefly luciferase-aSyn 3′UTR reporter assay in SH-SY5Y cells; format: cell-based; settings: for luciferase expression, Firefly/Renilla ratio, 1.1 kb human aSyn 3′UTR vector: 100 μM for 24 h
Method: The human SH-SY5Y neuroblastoma cell line (ATCC) was cultured following the distributor's instructions. Cells were plated at a density of 4×10^5 cells per well (in 48-well plates) in wells coated with 0.1% gelatin (Specialty Media, Millipore) 24 hours prior to transfection. Transfections were performed with Lipofectamine 2000 reagent (Invitrogen) following the manufacturer's instructions. The human HEK-293T cell line (ATCC) was cultured in DMEM (Invitrogen) supplemented with 10% FBS (Invitrogen). Cells were plated at a density of 8×10^3 cells per well (96-well plates). Mir-34b-3p precursor, specific Anti-miR Mir-34b-3p inhibitor, Anti-miR Negative Control #1, and Pre-miR Negative Control #1 were purchased from Ambion. Cells were co-transfected with luciferase reporter plasmids and a small RNA or inhibitor (as indicated) using siPort NeoFx reagent (Ambion) following manufacturer's protocol. Luciferase and Renilla activities were measured 24 h or 48 h after transfection using Dual-Glo luciferase assay system (Promega).

aSynL/total ratio = aSynL/total ratio in SK-N-MC cells treated with chronic low-dose rotenone (reanalysis of GEO GSE4773); format: cell-based, human; settings: one or two weeks vs vehicle
aSynL:total ratio [2] = test: In situ hybridization for aSyn CDS and long 3′UTR in primary cortical neuron cultures from aSyn PAC transgenic mice; format: cell-based; settings: 100 μM for 24 h, DIV 4 PAC mouse cortical neurons
Method: as §1
In situ hybridization were performed using QuantiGene® ViewRNA ISH Cell Assay (Panomics) following manufacturer's instructions, with QG ViewRNA TYPE 8 Probe Sets (Panomics) designed to target either human aSyn CDS sequences (bases 264-634 from NM_000345.3; Panomics) or to target human aSynL 3′UTR sequences (bases 1180-1760 from NM_000345.3).

aSyn protein [3] = test: Total endogenous aSyn protein by ELISA in SH-SY5Y cells; format: cell-based, human; settings: 100 μM for 48 h
Method: (§2) Mitochondria were purified using Qproteome Mitochondria Isolation Kit (Qiagen) and membrane fractions were isolated using Subcellular Protein Fractionation Kit (Pierce) following manufacturers' instructions. Human aSyn protein levels were determined using the aSyn Human ELISA kit (Invitrogen). Absorbance was read on a VersaMax ELISA Microplate Reader (Molecular Devices, Inc) at 450 nm. The amount of human aSyn was normalized to total cellular protein as determined with the DC Protein Assay Reagent kit (Bio-Rad). Mitochondrial preparations were validated by Western blot analysis for Tom20 and synaptophysin (see FIG. 12d).

aSyn protein [4] = test: aSyn protein by ELISA in mitochondrial and membrane fractions of SH-SY5Y cells; format: cell-based, human; settings: 100 μM for 48 h
Method: as §2

aSyn protein [5] = test: Colocalization of aSyn and Mitotracker in primary cortical neuron cultures from PAC transgenic mice; format: cell-based; settings: primary mouse cortical neurons, 100 μM for 24 h
Method: as §1
Immunostainings were done as previously described ^59 with Rabbit anti-aSyn (Santa Cruz, 1:200) or Mouse anti-Synaptophysin (Millipore, 1:100) as primary antibodies, and Alexa 555 goat anti-rabbit IgG or Alexa 633 goat anti-mouse IgG (Invitrogen) secondary antibodies. MitoTracker-Orange (Invitrogen, 1:10000) was added into media for 15-20 min in living cell culture. Collocalization analyses were done in R using EBImage package; using Pearson's correlation coefficient.

NCc1cc(=O)[nH]o1 [muscimol]
aSynL:total ratio (aSynL:total ratio [1]): alter
luciferase expression, Firefly/Renilla ratio, 1.1 kb human aSyn 3′UTR vector (human aSyn 3′UTR; SH-SY5Y): decreased

CN1CCCC1c1cccnc1 (stereo not shown) [nicotine]
expression of an aSynL-3′UTR bearing reporter gene (Firefly/Renilla) (human aSyn 3′UTR; nicotine 100 μM, with or without dopamine 100 μM, 24 h): decreases

CN1Cc2c(N)cccc2C(c2ccccc2)C1 (stereo not shown) [nomifensine]
dopamine-mediated potentiation of the aSynL:total ratio (aSynL:total ratio [1]): suppressed sensitivity
dopamine-mediated potentiation of the aSynL:total ratio (aSynL:total ratio [1]; listed as Nomifensine): suppresses
dopamine-increased luciferase accumulation, luciferase-aSyn 3′UTR vector (human aSyn 3′UTR; SH-SY5Y, dopamine 100 μM with nomifensine 100 μM, 24 h): suppressed

C=C(C)[C@H]1Cc2c(ccc3c2O[C@@H]2COc4cc(OC)c(OC)cc4[C@@H]2C3=O)O1 [rotenone]
aSynL/total ratio (Affymetrix probesets 204467_s_at and 211546_x_at) (aSynL/total ratio): predictably modify; also recorded: increased
aSynL/total ratio (Affymetrix probesets 204467_s_at and 211546_x_at) (aSynL/total ratio; listed as Rotenone): Mitochondrial toxin increases aSynL: total ratio

picrotoxin
aSynL:total ratio (aSynL:total ratio [1]): significantly increased; also recorded: alter
aSynL:total ratio (ratio of in situ hybridization signals) (aSynL:total ratio [2]): increase
endogenous aSyn protein levels (ELISA, normalized to total protein) (aSyn protein [3]): significantly increased
luciferase expression, Firefly/Renilla ratio, 1.1 kb human aSyn 3′UTR vector (human aSyn 3′UTR; SH-SY5Y): increased
luciferase expression, Firefly/Renilla ratio, short aSyn 3′UTR vector (human aSyn 3′UTR; SH-SY5Y, 100 μM for 24 hrs): do not influence
aSyn content within total cell membrane fraction relative to whole cell lysate (ELISA) (aSyn protein [4]): decreased; also recorded: reduction
aSyn protein content in mitochondrial preparations relative to whole cell aSyn content (ELISA) (aSyn protein [4]): increased proportion; also recorded: preferentially increased
fraction of aSyn protein that colocalized with mitochondria (Mitotracker) (aSyn protein [5]): significantly increased
